ChEMBL document CHEMBL1201862, “PubChem BioAssay data set” (2004)
Active and inactive are the calls of the source. For most assays here, no stated cut-off is given here; in the data, actives have a measured EC50 and inactives only a lower limit.

Legend:
Cytochrome P450 2C9 = Cytochrome P450 2C9 (Homo sapiens, UniProt P11712)
[1] = test system: Streptococcus sp. 'group A'; experiment: growth inhibition of control SK(-) GAS strain, dose response, counter-screen for streptokinase expression inhibitor project, luminescence, kanamycin, BacTiterGlo, confirmation (AID 1900); format: functional, organism-based
Streptokinase A = target: T1, Streptokinase A (Streptococcus pyogenes serotype M1, UniProt P10520); experiment: S. pyogenes streptokinase expression inhibitors, potency, dose response, plasminogen activation absorbance, OD405 (AID 1914); format: functional, Streptococcus pyogenes M1 GAS;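 further: secreted streptokinase activity via plasminogen activation per viability signal from cell pellet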
T1 sequence (P10520 whole entry): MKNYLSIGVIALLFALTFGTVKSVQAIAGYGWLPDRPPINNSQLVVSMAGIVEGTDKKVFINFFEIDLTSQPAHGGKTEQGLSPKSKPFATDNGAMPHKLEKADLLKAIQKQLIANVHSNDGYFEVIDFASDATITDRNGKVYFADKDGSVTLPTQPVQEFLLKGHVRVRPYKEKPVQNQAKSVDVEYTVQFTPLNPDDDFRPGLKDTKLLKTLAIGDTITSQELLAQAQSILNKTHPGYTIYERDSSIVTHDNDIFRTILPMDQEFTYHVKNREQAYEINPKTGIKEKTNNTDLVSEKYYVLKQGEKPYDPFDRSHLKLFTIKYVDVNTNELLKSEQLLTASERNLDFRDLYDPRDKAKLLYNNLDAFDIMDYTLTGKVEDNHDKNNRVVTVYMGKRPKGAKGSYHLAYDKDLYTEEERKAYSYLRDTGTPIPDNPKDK

Streptococcus = experiment: Group A Streptococcus viability loss, dose response, counter-screen for streptokinase expression inhibitor project, luminescence, BacTiterGlo (AID 1915); format: functional, organism-based;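 further: potency for reduction of bacterial viability or growth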
[2] = NIH-3T3 fibroblast cytotoxicity, dose response, cytotoxicity control, cell-based, fluorescence, Alamar Blue, secondary assay (AID 2327); format: functional;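 further: NIH-3T3 mouse fibroblasts cultured with fluconazole at 8 µg/mL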
[3] = C. albicans growth with fluconazole, confirmation, fluorescence, retest (AID 2467); format: functional, cell-based
INS1 = experiment: beta cell apoptosis inhibitors, cytokine rescue, dose response, luminescence, retest (AID 449756); format: functional, cell-based; settings: Rattus norvegicus;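 further: cell death triggered by IL-1 beta plus TNF-alpha plus IFN-gamma mixture; protective hits raise ATP signal compared with cytokine alone wells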
[4] = inhibitors of intracellular T. cruzi replication, confirmation, NIH3T3 host cells, beta-gal luminescence (AID 2044); format: functional, cell-based;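 further: intracellular parasites grown in NIH/3T3 mouse fibroblasts as host cells; luminescent beta-galactosidase reporter signal from transgenic T. cruzi replicating inside host cells; inhibitors lower the luminescence signal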
[5] = cytotoxicity toward NIH3T3 fibroblasts, dose response, counter-screen, cell-based, ATP luminescence, mouse fibroblasts (AID 2010); format: functional;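 further: cells exposed to compound for about 90 hours before reading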
[6] = Luminescence Cell-Based Dose Retest to Confirm Inhibitors of Cancer Stem Cells. [Related pubchem assays (depositor defined):AID2717, AID2721]; format: functional; settings: Homo sapiens
[7] = target: T2, Corticotropin-releasing factor receptor 2/Corticotropin-releasing factor-binding protein (Homo sapiens, UniProt P24387+Q13324); experiment: activators of CRF receptor 2 with binding protein – uHTS hits, confirmation (AID 602473); format: functional; settings: read-out: EC50_Mean
T2 sequence (Q13324 whole entry): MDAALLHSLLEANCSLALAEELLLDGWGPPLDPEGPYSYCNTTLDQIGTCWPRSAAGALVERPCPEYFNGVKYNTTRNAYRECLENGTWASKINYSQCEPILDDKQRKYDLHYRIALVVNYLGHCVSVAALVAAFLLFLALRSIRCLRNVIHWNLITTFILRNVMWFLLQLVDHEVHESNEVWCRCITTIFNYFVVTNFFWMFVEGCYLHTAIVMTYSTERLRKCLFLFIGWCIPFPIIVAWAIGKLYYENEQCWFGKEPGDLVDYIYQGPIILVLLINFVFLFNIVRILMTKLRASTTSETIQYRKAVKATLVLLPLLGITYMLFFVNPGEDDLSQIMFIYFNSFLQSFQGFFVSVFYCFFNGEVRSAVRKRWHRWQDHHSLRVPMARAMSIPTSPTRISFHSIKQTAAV
T2 sequence (P24387 whole entry): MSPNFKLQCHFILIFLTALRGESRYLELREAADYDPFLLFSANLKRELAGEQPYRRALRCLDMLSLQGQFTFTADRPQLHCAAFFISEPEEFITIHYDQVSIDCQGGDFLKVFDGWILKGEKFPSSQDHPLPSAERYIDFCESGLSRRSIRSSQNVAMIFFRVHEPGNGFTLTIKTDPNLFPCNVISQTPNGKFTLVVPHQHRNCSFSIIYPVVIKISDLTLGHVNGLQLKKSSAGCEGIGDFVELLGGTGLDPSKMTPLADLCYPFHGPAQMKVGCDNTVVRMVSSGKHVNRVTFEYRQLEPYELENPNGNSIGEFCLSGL

Cytochrome P450 2C9, sequence (P11712 whole entry): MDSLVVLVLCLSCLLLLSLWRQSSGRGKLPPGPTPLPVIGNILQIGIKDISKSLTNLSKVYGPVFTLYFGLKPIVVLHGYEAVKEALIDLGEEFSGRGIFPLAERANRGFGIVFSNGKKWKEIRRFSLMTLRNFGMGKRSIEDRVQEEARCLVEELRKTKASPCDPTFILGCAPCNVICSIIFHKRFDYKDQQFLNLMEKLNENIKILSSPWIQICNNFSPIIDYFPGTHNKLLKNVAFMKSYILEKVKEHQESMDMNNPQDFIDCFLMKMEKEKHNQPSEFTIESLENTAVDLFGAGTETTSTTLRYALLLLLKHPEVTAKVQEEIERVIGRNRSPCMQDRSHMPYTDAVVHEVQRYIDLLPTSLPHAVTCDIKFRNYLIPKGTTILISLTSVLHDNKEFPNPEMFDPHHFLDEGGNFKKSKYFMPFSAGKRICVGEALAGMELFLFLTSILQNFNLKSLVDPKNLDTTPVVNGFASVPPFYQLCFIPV

COc1ccc2c(c1)c(CC(=O)O)c(C)n2Cc1ccc(Cl)cc1
AC50 (Cytochrome P450 2C9): 12.6 µM (inconclusive)

CC(C)CCOc1ccc(NC(=O)C2OC3OC(C)(C)OC3C3OC(C)(C)OC23)cc1 (stereo not given)
AC50 (Cytochrome P450 2C9): 25.1 µM (inconclusive)

CC1(C)S[C@@H]2[C@H](NC(=O)COc3ccccc3)C(=O)N2C1C(=O)OCc1ccccc1 (stereo not given in full)
EC50 [1]: 1.42 µM (active)
EC50 (Streptokinase A): > 150 µM (not active)
EC50 (Streptococcus): 2.56 µM (active)

Cc1cccc(NC(=O)NNC(=O)c2cc3ccccc3cc2O)c1C
EC50 [2]: 80.6 µM (active)
EC50 [3]: > 38 µM (not active)

CC(=O)c1ccccc1OCCOCCOc1ccccc1C(C)=O
AC50 (INS1): 31.1 µM (active)

COc1ccc(CN(C)CC(=O)c2c(N)n(Cc3ccccc3)c(=O)n(C)c2=O)c(OC)c1
EC50 [4]: 2.78 µM (active)
EC50 [5]: > 60 µM (not active)

COc1cc(OC)c(NC(S)=NCc2ccccc2)cc1Cl
EC50 [2]: > 160 µM (inactive)
EC50 [3]: > 38 µM (not active)

COc1ccc(/C=C/C2=CCN(Cc3ccc(OC)cc3)CC2)cc1
EC50 [4]: 3.17 µM (active)
EC50 [5]: > 60 µM (not active)

CSc1ccc(/C=C/c2ccc3cccc(O)c3n2)cc1
EC50 [1]: 0.693 µM (active)
EC50 (Streptococcus): 14 µM (active)

Cc1ccc(-n2c(N)c(-c3nc4ccccc4n3C)sc2=S)cc1
EC50 [1]: 39.6 µM (active)
EC50 (Streptokinase A): > 150 µM (not active)
EC50 (Streptococcus): > 150 µM (not active)

Cc1ccc2nc(N=C(NS(=O)(=O)c3ccc(F)cc3)c3ccccc3)sc2c1
EC50 [1]: 5.01 µM (active)
EC50 (Streptokinase A): > 50 µM (not active)
EC50 (Streptococcus): 10 µM (active)

CSc1cnc2c(N)nc(N(C)C)nc2n1
EC50 [2]: > 160 µM (inconclusive)
EC50 [3]: 2.63 µM (active)

CC(=O)c1c(O)cc(=O)n(-c2ccccc2)c1-c1cccc2ccccc12
AC50 (Cytochrome P450 2C9): 22.4 µM (inconclusive)

COc1cc(OC)c(C=O)c(OC(=O)N2CCOCC2)c1
AC50 [6]: > 195 µM (inactive)

O=C(c1ccc(O)cc1)c1ccc(C(=O)c2ccc(O)cc2)cc1
EC50 [1]: 2.84 µM (active)
EC50 (Streptokinase A): > 150 µM (not active)
EC50 (Streptococcus): 31.4 µM (active)

CCn1cc(C(=O)N[C@H](C)c2ccccc2)c(=O)c2cc(F)c(N3CCN(C)CC3)cc21
AC50 [6]: 0.796 µM (active)

CN1CCc2nc(SCc3ccc(C(C)(C)C)cc3)c(C#N)cc2C1
EC50 [4]: 0.465 µM (active)
EC50 [5]: 19 µM (active)

COc1ccccc1CNc1nc(-c2ccc(N(C)C)cc2)nc2ccccc12
AC50 (Cytochrome P450 2C9): 0.794 µM (inconclusive)

CC1(C)C=Cc2c(c3c(c4c(=O)c(-c5ccc(O)cc5)coc24)OC(C)(C)CC3)O1
AC50 [6]: 6.61 µM (active)

Cc1ccccc1CN(C)CC(=O)Nc1ccccc1-c1ccccc1
EC50 [1]: 7.65 µM (active)
EC50 (Streptokinase A): 23.3 µM (active)
EC50 (Streptococcus): > 150 µM (not active)

CC(=O)c1ccc(-c2cc([C@H]3[C@H]4C=CC[C@@H](C)[C@@H]4C(=O)N3Cc3ccccc3)ccc2F)cc1
AC50 [6]: 5.46 µM (active)

O=C(CSc1nnc(CNC(=O)c2ccccc2)o1)NCc1ccccc1
EC50 [1]: > 150 µM (not active)
EC50 (Streptokinase A): > 150 µM (not active)
EC50 (Streptococcus): > 150 µM (not active)

COc1ccc(C(=O)N2CCc3c([nH]c4ccccc34)C2C(F)(F)F)cc1 (stereo not given)
EC50 [1]: > 150 µM (not active)
EC50 (Streptokinase A): > 150 µM (not active)
EC50 (Streptococcus): > 150 µM (not active)

COc1cc(OC)cc(C(=O)Nc2cccc(N3CCCC3)c2)c1
EC50 [4]: 3.33 µM (active)
EC50 [5]: > 30 µM (not active)

CC1(C)CC(=O)C2=C(C1)OC1=C(C(=O)CC(C)(C)C1)C2c1cc([N+](=O)[O-])cc([N+](=O)[O-])c1O
EC50 [2]: > 160 µM (inactive)
EC50 [3]: 0.221 µM (active)

Cn1c(=S)c2nc(SCc3cccnc3)[nH]c2n(C)c1=O
AC50 (Cytochrome P450 2C9): 6.31 µM (inconclusive)

CN1CCN(CCOc2ccc(Cl)c(Cl)c2)CC1
EC50 [4]: 0.516 µM (active)
EC50 [5]: > 60 µM (not active)

CC(C)Cc1ccc(C(C)C(=O)Nc2ccc(O)cc2)cc1 (stereo not given)
EC50 [7]: 3.77 µM (active)

COc1cc2cc(C(=O)N3CCOCC3)cc(-c3ccc(C)cc3)c2cc1OC
AC50 (INS1): 6.42 µM (active)

CCCOc1ccc(NCC(=O)Nc2ccc(C)cc2C)cc1
EC50 [4]: 3.07 µM (active)
EC50 [5]: > 60 µM (not active)

Cc1ccc(NC(=S)N(CCCN2CCCC2)Cc2cccn2Cc2ccc(Cl)cc2)cc1Cl
AC50 [6]: 5.36 µM (active)

COc1ccc(CCC(C)NCC2CCCCC2)cc1 (stereo not given)
AC50 [6]: 5.09 µM (active)

COc1ccc(S(=O)(=O)N2CCCCCC2)cc1N(C)S(=O)(=O)c1ccc(Cl)cc1
EC50 [4]: 2.21 µM (active)
EC50 [5]: > 60 µM (not active)

CC(C)(C)c1cc(C(=O)NNc2cccc(Cl)c2)n(Cc2ccccc2)n1
AC50 [6]: 1.34 µM (active)

O=c1c2ccccc2nc(SCCN2CCCCC2)n1CCc1ccccc1
EC50 [4]: 1.57 µM (active)
EC50 [5]: > 60 µM (not active)

COc1ccc(-n2c(=O)c3c4c(sc3n3c(S)nnc23)CCC4)cc1
EC50 [1]: 15.7 µM (active)
EC50 (Streptococcus): 17.4 µM (active)

Cc1ccc(-c2csc(-c3c[nH]c4ccccc34)n2)c(C)c1
EC50 [1]: 12 µM (active)
EC50 (Streptokinase A): > 150 µM (not active)
EC50 (Streptococcus): 7.96 µM (active)
AC50 [6]: 2.88 µM (active)

COc1cnc(-c2ccccn2)nc1Oc1ccc(C(C)(C)C)cc1
EC50 [1]: 12.4 µM (active)
EC50 (Streptokinase A): > 150 µM (not active)
EC50 (Streptococcus): 19.2 µM (active)
AC50 (INS1): 6.45 µM (active)

CN1CCN(CCCOc2ccc(-c3ccccc3)cc2)CC1
EC50 [4]: 0.988 µM (active)
EC50 [5]: 7.93 µM (active)

COc1ccccc1CNC(=O)C(=O)NCC1CCCN1S(=O)(=O)c1cccs1 (stereo not given)
EC50 [4]: 2.54 µM (active)
EC50 [5]: > 60 µM (not active)

O=C(NCCc1ccccc1F)C1CCCN1S(=O)(=O)c1ccc2ccccc2c1 (stereo not given)
EC50 [4]: 1.63 µM (active)
EC50 [5]: > 60 µM (not active)

O=[N+]([O-])c1ccc(CP(=O)(c2ccccc2)c2ccccc2)cc1
AC50 [6]: > 195 µM (inactive)

O=C(Nc1cccc(-c2csc(Nc3ccc(Cl)cc3)n2)c1)c1cc([N+](=O)[O-])cc(C(F)(F)F)c1
AC50 [6]: 1.56 µM (active)

Cc1ccc(NS(=O)(=O)c2ccc(NC(=O)c3ccccc3C(=O)O)cc2)c(C)c1
EC50 [4]: > 60 µM (not active)
EC50 [5]: > 60 µM (not active)

Cc1cc2oc(=O)cc(CN3CCN(S(=O)(=O)/C=C/c4ccccc4)CC3)c2cc1C
EC50 [4]: 2.02 µM (active)
EC50 [5]: > 60 µM (inconclusive)

Cc1ccc(-c2cc(-c3ccccc3)nc(N(C)N)n2)cc1
EC50 [1]: 14.6 µM (active)
EC50 (Streptokinase A): > 150 µM (not active)
EC50 (Streptococcus): > 150 µM (not active)

c1ccc(CSc2nnc([C@@H]3CCCN3)o2)cc1
AC50 (Cytochrome P450 2C9): 5.62 µM (inconclusive)

Cc1nc(SCc2nc3cc(C(F)(F)F)ccc3[nH]2)c2oc3ccccc3c2n1
AC50 [6]: 4.11 µM (active)

COc1cc(/C=N/N(c2ccccc2)c2ccccc2)ccc1O
AC50 [6]: 5.16 µM (active)

CCCCc1ccc(N/N=C(\C(C)=O)C(=O)Nc2ccc(NC(C)=O)cc2OC)cc1
AC50 [6]: 3.91 µM (active)

Cc1ccc(-c2nn3c(O)c4c(nc3c2C)CCCC4)cc1
AC50 (Cytochrome P450 2C9): 6.31 µM (inconclusive)

O=C1CN(/N=C/c2ccc([N+](=O)[O-])o2)C(=O)N1 [NITROFURANTOIN]
EC50 [1]: 3.16 µM (active)
EC50 (Streptokinase A): > 150 µM (not active)
EC50 (Streptococcus): 9.83 µM (active)
